Reference: US11000033B2, “Ketone or oxime compound, and herbicide” (NISSAN CHEMICAL CORPORATION, priority 2014, dated 2021)

How the values were obtained:
Format in all cases: in vivo
[1] = tested on: Chenopodium album; assay: Test Example 5: herbicidal effect by foliage application, plastic box (symbol O); conditions: 320 g/ha, 3 weeks after application
Outline: (§1)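 Greenhouse foliar test: seedlings at 14 days, grown 25° C. to 30° C. in sterilized diluvial soil; compound applied as an aqueous dilution of an emulsion; response read 3 weeks after spraying.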

[2] = tested on: Echinochloa crus-galli var. crus-galli; assay: Test Example 5: herbicidal effect by foliage application, plastic box (symbol H); conditions: 320 g/ha, 3 weeks after application
Outline: as §1

[3] = tested on: Stellaria media; assay: Test Example 5: herbicidal effect by foliage application, plastic box (symbol P); conditions: 320 g/ha, 3 weeks after application
Outline: as §1

[4] = tested on: Alopecurus myosuroides; assay: Test Example 4: herbicidal effect by soil treatment (symbol J); conditions: application herbicide amount 320 g/ha
Outline: (§2)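 Seeds were sown in sterilized diluvial soil, covered with about 1.5 cm of soil, and the soil surface was sprayed with a water-diluted emulsion of the compound at a predetermined rate. Plants grew in a greenhouse at 25° C. to 30° C.; effects were scored visually 3 weeks after application.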

[5] = tested on: Avena fatua; assay: Test Example 4: herbicidal effect by soil treatment (symbol I); conditions: application herbicide amount 320 g/ha
Outline: as §2

[6] = tested on: Stellaria media; assay: Test Example 4: herbicidal effect by soil treatment (symbol P); conditions: application herbicide amount 320 g/ha
Outline: as §2

[7] = tested on: Lolium multiflorum Lam.; assay: Test Example 5: herbicidal effect by foliage application, plastic box (symbol K); conditions: 320 g/ha, 3 weeks after application
Outline: as §1

[8] = tested on: Amaranthus retroflexus; assay: Test Example 5: herbicidal effect by foliage application, plastic box (symbol N); conditions: 320 g/ha, 3 weeks after application
Outline: as §1

[9] = tested on: rapeseed; assay: Test Example 5: effect on crop by foliage application, plastic box (symbol g); conditions: 320 g/ha, 3 weeks after application
Outline: (§3)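 Crop and weed seeds sown in spots in sterilized diluvial soil in plastic boxes and covered with about 1.5 cm soil. Plants raised in a greenhouse at 25° C. to 30° C. for foliar application.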

[10] = tested on: Monochoria vaginalis; assay: Test Example 1: herbicidal activity, application before weed generation in submerged conditions (symbol C); conditions: application herbicide amount 320 g/ha
Outline: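 Mixed weed seeds sown in alluvial soil under 4 cm of water, with rice seedlings at the 2.5-leaf stage added. Same-day treatment: emulsion diluted to a set herbicide amount onto the water. Three weeks at 25–30 °C, then graded on a six-step scale.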

[11] = tested on: Galium spurium; assay: Test Example 4: herbicidal effect by soil treatment (symbol Q); conditions: application herbicide amount 320 g/ha
Outline: as §2

[12] = tested on: Setaria viridis; assay: Test Example 4: herbicidal effect by soil treatment (symbol G); conditions: application herbicide amount 320 g/ha
Outline: as §2

[13] = tested on: Abutilon theophrasti; assay: Test Example 5: herbicidal effect by foliage application, plastic box (symbol M); conditions: 320 g/ha, 3 weeks after application
Outline: as §1

[14] = tested on: Leptochloa chinensis; assay: Test Example 3: herbicidal effect by foliage application, Wagner pot (symbol D); conditions: application herbicide amount 320 g/ha
Outline: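 Plants sown in submerged alluvial soil (water depth 0.1–0.5 cm) in a 25–30 °C greenhouse and grown 14 days. An emulsion of the compound diluted in water to a set herbicide amount was sprayed uniformly on foliage. Effect on each plant scored 3 weeks after application.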

[15] = tested on: Apera spica-venti; assay: Test Example 4: herbicidal effect by soil treatment (symbol L); conditions: application herbicide amount 320 g/ha
Outline: as §2

[16] = tested on: Veronica persica; assay: Test Example 4: herbicidal effect by soil treatment (symbol R); conditions: application herbicide amount 320 g/ha
Outline: as §2

[17] = tested on: transplanted rice plant; assay: Test Example 1: effect on crop, application before weed generation in submerged conditions (symbol a); conditions: application herbicide amount 320 g/ha
Outline: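 Rice at 2.5 leaf stage transplanted into submerged soil (4 cm depth) sown with three weed species; herbicide applied before weed emergence.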

[18] = tested on: corn; assay: Test Example 5: effect on crop by foliage application, plastic box (symbol c); conditions: 320 g/ha, 3 weeks after application
Outline: as §3

| Structure (SMILES) | O: Chenopodium album, herbicidal effect grade [1] | H: Echinochloa crus-galli var. crus-galli, herbicidal effect grade [2] | P: Stellaria media, herbicidal effect grade [3] | J (Alopecurus myosuroides) herbicidal effect grade [4] | I (Avena fatua) herbicidal effect grade [5] | P (Stellaria media) herbicidal effect grade [6] | K: Lolium multiflorum Lam., herbicidal effect grade [7] | N: Amaranthus retroflexus, herbicidal effect grade [8] | g: rapeseed, effect on crop grade [9] | Herbicidal effect grade, C: Monochoria vaginalis [10] | Q (Galium spurium) herbicidal effect grade [11] | G (Setaria viridis) herbicidal effect grade [12] | M: Abutilon theophrasti, herbicidal effect grade [13] | herbicidal effect on D (Leptochloa chinensis), grade 0-5 [14] | L (Apera spica-venti) herbicidal effect grade [15] | R (Veronica persica) herbicidal effect grade [16] | Effect grade on crop, a: transplanted rice plant [17] | c: corn, effect on crop grade [18] | also measured |
| --- | --- | --- | --- | --- | --- | --- | --- | --- | --- | --- | --- | --- | --- | --- | --- | --- | --- | --- | --- |
| CON=C(C)CC1CC(OC(=O)COc2ccccc2[N+](=O)[O-])=C(c2c(C)cc(C)cc2C)C1=O (stereo not drawn) [1-071] | 1 (Herbicidal ratio of 5% or higher and lower than 20%) | 5 (Herbicidal ratio of 90% or more (almost completely withered)) | 0 (Herbicidal ratio of 5% or lower (almost no effect)) | 5 (Herbicidal ratio of 90% or more (almost completely withered)) | 4 (Herbicidal ratio of 70% or higher and lower than 90%) | 0 (Herbicidal ratio of 5% or lower (almost no effect)) | 3 (Herbicidal ratio of 40% or higher and lower than 70%) | 0 (Herbicidal ratio of 5% or lower (almost no effect)) | 4 (Herbicidal ratio of 70% or higher and lower than 90%) | 0 (Herbicidal ratio of 5% or lower (almost no effect)) | 0 (Herbicidal ratio of 5% or lower (almost no effect)) | 5 (Herbicidal ratio of 90% or more (almost completely withered)) | 4 (Herbicidal ratio of 70% or higher and lower than 90%) | 5 (Herbicidal ratio of 90% or more (almost completely withered)) | 5 (Herbicidal ratio of 90% or more (almost completely withered)) | 0 (Herbicidal ratio of 5% or lower (almost no effect)) | 5 (Herbicidal ratio of 90% or more (almost completely withered)) | 5 (Herbicidal ratio of 90% or more (almost completely withered)) |  |
| CON=C(C)CC1CC(OC(=O)COc2ccccc2OC)=C(c2c(C)cc(C)cc2C)C1=O (stereo not drawn) [1-067] | 2 (Herbicidal ratio of 20% or higher and lower than 40%) | 5 (Herbicidal ratio of 90% or more (almost completely withered)) | 3 (Herbicidal ratio of 40% or higher and lower than 70%) | 5 (Herbicidal ratio of 90% or more (almost completely withered)) | 3 (Herbicidal ratio of 40% or higher and lower than 70%) | 0 (Herbicidal ratio of 5% or lower (almost no effect)) | 3 (Herbicidal ratio of 40% or higher and lower than 70%) | 4 (Herbicidal ratio of 70% or higher and lower than 90%) | 4 (Herbicidal ratio of 70% or higher and lower than 90%) | 1 (Herbicidal ratio of 5% or higher and lower than 20%) | 0 (Herbicidal ratio of 5% or lower (almost no effect)) | 5 (Herbicidal ratio of 90% or more (almost completely withered)) | 5 (Herbicidal ratio of 90% or more (almost completely withered)) | 5 (Herbicidal ratio of 90% or more (almost completely withered)) | 5 (Herbicidal ratio of 90% or more (almost completely withered)) | 0 (Herbicidal ratio of 5% or lower (almost no effect)) | 5 (Herbicidal ratio of 90% or more (almost completely withered)) | 5 (Herbicidal ratio of 90% or more (almost completely withered)) |  |
| CON=C(C)CC1CC(OC(=O)COc2ccc(C)cc2)=C(c2c(C)cc(C)cc2C)C1=O (stereo not drawn) [1-072] | 1 (Herbicidal ratio of 5% or higher and lower than 20%) | 5 (Herbicidal ratio of 90% or more (almost completely withered)) | 2 (Herbicidal ratio of 20% or higher and lower than 40%) | 5 (Herbicidal ratio of 90% or more (almost completely withered)) | 4 (Herbicidal ratio of 70% or higher and lower than 90%) | 0 (Herbicidal ratio of 5% or lower (almost no effect)) | 5 (Herbicidal ratio of 90% or more (almost completely withered)) | 5 (Herbicidal ratio of 90% or more (almost completely withered)) | 4 (Herbicidal ratio of 70% or higher and lower than 90%) |  | 0 (Herbicidal ratio of 5% or lower (almost no effect)) | 5 (Herbicidal ratio of 90% or more (almost completely withered)) | 5 (Herbicidal ratio of 90% or more (almost completely withered)) | 5 (Herbicidal ratio of 90% or more (almost completely withered)) | 5 (Herbicidal ratio of 90% or more (almost completely withered)) | 0 (Herbicidal ratio of 5% or lower (almost no effect)) | 5 (Herbicidal ratio of 90% or more (almost completely withered)) | 5 (Herbicidal ratio of 90% or more (almost completely withered)) |  |
| CC(=O)CC1CC(O)=C(c2c(C)cc(Oc3ccccc3)cc2C)C1=O (stereo not drawn) [7-014] |  |  |  |  |  |  |  |  |  |  |  |  |  | 5 (Herbicidal ratio of 90% or more (almost completely withered)) |  |  |  |  | O: Chenopodium album, herbicidal effect (criteria of Test Example 1) [1]: 0 (Herbicidal ratio of 5% or lower (almost no effect)); H: Echinochloa crus-galli var. crus-galli, herbicidal effect (criteria of Test Example 1) [2]: 5 (Herbicidal ratio of 90% or more (almost completely withered)); P: Stellaria media, herbicidal effect (criteria of Test Example 1) [3]: 0 (Herbicidal ratio of 5% or lower (almost no effect)); Herbicidal effect grade, J: Alopecurus myosuroides [4]: 0 (Herbicidal ratio of 5% or lower (almost no effect)); Herbicidal effect grade, I: Avena fatua [5]: 0 (Herbicidal ratio of 5% or lower (almost no effect)); Herbicidal effect grade, P: Stellaria media [6]: 0 (Herbicidal ratio of 5% or lower (almost no effect)); K: Lolium multiflorum Lam., herbicidal effect (criteria of Test Example 1) [7]: 5 (Herbicidal ratio of 90% or more (almost completely withered)); N: Amaranthus retroflexus, herbicidal effect (criteria of Test Example 1) [8]: 0 (Herbicidal ratio of 5% or lower (almost no effect)); g: rapeseed, effect on crop (criteria of Test Example 1) [9]: 1 (Herbicidal ratio of 5% or higher and lower than 20%); Herbicidal effect grade, Q: Galium spurium [11]: 0 (Herbicidal ratio of 5% or lower (almost no effect)); Herbicidal effect grade, G: Setaria viridis [12]: 2 (Herbicidal ratio of 20% or higher and lower than 40%); M: Abutilon theophrasti, herbicidal effect (criteria of Test Example 1) [13]: 0 (Herbicidal ratio of 5% or lower (almost no effect)); Herbicidal effect grade, L: Apera spica-venti [15]: 0 (Herbicidal ratio of 5% or lower (almost no effect)); Herbicidal effect grade, R: Veronica persica [16]: 0 (Herbicidal ratio of 5% or lower (almost no effect)); c: corn, effect on crop (criteria of Test Example 1) [18]: 3 (Herbicidal ratio of 40% or higher and lower than 70%) |
